Measured values: US8138191B2, “Inhibitor compounds and cancer treatment methods” (Critical Outcome Technologies Inc., priority 2007, dated 2012)
Where two headings read alike, the source gives them in different places.

Legend:
DMS114 = test: in vitro IC50 against cancer cell lines, DMS114; assay type: cell-based; settings: Homo sapiens, DMS-114, 72 h; DMS114, SCLC, 3 days
Experimental: (§1) Briefly, cells were plated in plastic tissue culture plates and grown under standard conditions for each cell line, in carbon dioxide/oxygen atmosphere in plastic tissue culture plates, in the presence of COTI-2 or COTI-219 compounds at 35° C. for 3 days. Control cultures were treated with vehicle minus compound. Cells were counted after 3 days in culture and at a cell density of no more than 80%. The following cell lines, obtained from the National Cancer Institute, were tested: human SCLC cell lines DMS153, DMS114, SHP77; human NSCLC cell lines H226, A460, A560; human breast cancer cell lines T47D, MCF7; human colon cancer cell line HT29; and, human Leukemia cell lines K562, HL60.

A549 = test: in vitro IC50 against cancer cell lines, A549; assay type: cell-based; settings: Homo sapiens, 72 h; A549, NSCLC, 3 days
MCF7 = test: in vitro IC50 against cancer cell lines, MCF7; assay type: cell-based; settings: Homo sapiens, 72 h; MCF7, Breast Cancer, 3 days
Experimental: as §1

HT29 = test: in vitro IC50 against cancer cell lines, HT29; assay type: cell-based; settings: Homo sapiens, HT-29, 72 h; HT29, Colorectal Cancer, 3 days
Experimental: as §1

K562 = test: in vitro IC50 against cancer cell lines, K562; assay type: cell-based; settings: Homo sapiens, 72 h; K562, Leukemia, 3 days
Experimental: as §1

[1] = system: SHP-77 human SCLC cell line tumor xenografts; test: Nude mouse model of human SCLC, SHP-77 xenografts; assay type: in vivo; settings: IP on alternate days from Day 3, 31 days
Experimental: The nude mouse model of human SCLC was used to evaluate the in vivo efficacy of compounds of the present invention in comparison with several known chemotherapeutic agents. Nude mice were obtained form the National Cancer Institute and the SHP-77 human SCLC cell line was chosen for metastatic tumor xenografts. The control group consisted of 10 animals, each of which were administered bilateral thigh injections of a prescribed volume of tumor cells. There were 6 treatment groups, each containing 5 animals: COTI-2, COTI-4, COTI-219, Taxotere® (docetaxel), Cisplatin® (cis-diamminedichloroplatinum) and Tarceva® (erlotinib) The therapeutic agent was administered by intraperitoneal (IP) injection on alternate days beginning on Day 3 post tumor cell injection. Each animal in a treatment group was administered bilateral thigh injections with the same prescribed volume of tumor cells as the control animals. Treatment continued for 31 days, following which the animals were euthanized and tissues were collected for subsequent analysis.

[2] = system: total Akt protein in SHP-77 cells; test: Total Akt by western blot analysis, SHP-77; assay type: cell-based, human; settings: SHP-77, 250 nM, after 24 hrs
Experimental: Cell viability was determined at 24, 48, and 96 hrs by the trypan exclusion method. Whole cell lysates were prepared using standard procedures and fifty micrograms of lysate protein was separated on SDS-PAGE gels and analyzed by western blotting.
Cell viability was determined at 24, 48, and 96 h by the trypan exclusion method. Whole cell lysates were prepared using standard procedures and 50 μg of lysate protein was separated on SDS-PAGE gels and analyzed by western blotting.

DMS114 cells = test: Proliferation with anti-cancer agents plus COTI-2, DMS114; assay type: cell-based, human
H1975 = test: CellTiter-Blue growth inhibition, single agents and combinations, H1975; assay type: cell-based; settings: Homo sapiens, read-out: Mean IC50, single agent
Experimental: (§2) The stock concentration was further diluted to 1 mM and added to a drug plate. […] Following dilution, 2 μl of test agent was transferred to the corresponding wells of a cell-containing 96-well plate with 198 μl of growth media. Tarceva® (erlotinib) was supplied by LC Labs (Woburn, Mass.).
(§3) Viable cell numbers were quantified by the CellTiter-Blue® cell viability assay, which measures the conversion of the indicator dye (resazurin) to resorufin, an indicator of cell viability. Experiments were repeated at least twice with the same concentrations to determine growth inhibitory activity.
(§4) The CI, a numerical value calculated as described in equation A, also provides a quantitative measure of the extent of drug interaction. A CI of less than, equal to, and more than 1 indicates synergy, additivity, and antagonism, respectively. CI=(CAx/ICx,A)+(CB,x/ICx,B) Equation A: Where CA,x and CB,x, are the concentrations of drug A and drug B used in combination to achieve x % drug effect. ICx,A and ICx,B are the concentrations for single agents to achieve the same effect.

HT-29 = test: CellTiter-Blue growth inhibition, single agents and combinations, HT-29; assay type: cell-based; settings: Homo sapiens, read-out: Mean IC50, single agent
Experimental: as §2
as §3, with “Cells were grown to 70% confluency, trypsinized, counted, and seeded in 96-well flat-bottom plates at a final concentration of 2.5×10^3−5×10^3 cells/well (Day 0). […] Viable” for “Viable”
as §4

COLO-205 = test: Tumor cell proliferation, single agents and combinations, COLO-205; assay type: cell-based, human; settings: Homo sapiens
Experimental: (§5) The 3 cell lines were treated as follows:
(§6) Day 1: Cells were plated in 96-well flat bottom plates (VWR, Mississauga, ON, Canada) and allowed to adhere overnight.
(§7) All treated and control cells were, therefore, exposed to a 1% DMSO concentration plus the desired concentration of COTI-2.
as §4

HCT-15 = test: Tumor cell proliferation, single agents and combinations, HCT-15; assay type: cell-based; settings: Homo sapiens
Experimental: as §5, §6, §7, §4

SW620 = test: Tumor cell proliferation, single agents and combinations, SW620; assay type: cell-based, human; settings: Homo sapiens
Experimental: as §5, §6, §7, §4

CYP3A [3] = biological target: T1, CYP3A (Homo sapiens, UniProt P08684); test: in vitro; settings: both
T1 sequence (P08684 2-503): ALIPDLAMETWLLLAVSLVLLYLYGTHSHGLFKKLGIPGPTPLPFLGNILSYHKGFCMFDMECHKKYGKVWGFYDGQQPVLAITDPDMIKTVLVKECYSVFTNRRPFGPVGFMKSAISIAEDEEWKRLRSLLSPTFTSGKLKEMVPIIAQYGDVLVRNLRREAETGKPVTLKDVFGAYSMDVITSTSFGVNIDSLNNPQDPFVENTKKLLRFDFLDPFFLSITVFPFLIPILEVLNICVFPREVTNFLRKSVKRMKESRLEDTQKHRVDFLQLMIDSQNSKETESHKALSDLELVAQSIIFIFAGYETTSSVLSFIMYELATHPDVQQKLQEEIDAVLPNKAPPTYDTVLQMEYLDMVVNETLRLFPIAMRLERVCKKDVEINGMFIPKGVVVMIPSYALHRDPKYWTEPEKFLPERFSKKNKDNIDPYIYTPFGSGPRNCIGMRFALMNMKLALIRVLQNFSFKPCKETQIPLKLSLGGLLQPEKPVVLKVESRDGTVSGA

CYP3A [4] = biological target: T1, CYP3A; test: in vitro; settings: both; remark: listed apart in the source
SNB-19 = test: IC50 human glioma/astrocytoma cell lines (alamar Blue), SNB-19; settings: Homo sapiens, SNB-19
SF-295 = test: IC50 human glioma/astrocytoma cell lines (alamar Blue), SF-295

Q: Which results are given for S=C(N/N=C1/CCCc2cccnc21)N1CCN(c2ccccn2)CC1 [COTI-2]?
A: IC50 (DMS114): 51 nM; IC50 (A549): 6300 nM; IC50 (MCF7): 101 nM; IC50 (HT29): 121 nM; IC50 (K562): 176 nM; average number of tumors per injection site [1]: 0.28; mean tumor volume [1]: 9.9 mm^3; total Akt protein [2]: decreased; reduction of proliferation as a single agent (DMS114 cells; DMS114, 31 nM): 25%; reduction of proliferation as a single agent (DMS114 cells; DMS114, 73 nM): 25%; IC50 (H1975; NCI-H1975, 72 h): 10 nM; IC50 (HT-29; HT-29, 72 h): 200 nM; IC50 (COLO-205; COLO 205, read-out: Mean IC50, single agent): 4.7 nM; IC50 (HCT-15; HCT-15, read-out: Mean IC50, single agent): 8.3 nM; IC50 (SW620; SW-620, read-out: Mean IC50, single agent): 165 nM; inhibition at 15 min, 10 µM (CYP3A [3]; human liver microsomes, pH 7.4, probe midazolam (10 µM)): 7%; inhibition at 15 min, 10 µM (CYP3A [3]; liver microsomes, pH 7.4, probe midazolam): < 50%; inhibition at 15 min, 10 µM (CYP3A [4]; human liver microsomes, pH 7.4, probe testosterone (10 µM)): -4%; inhibition at 15 min, 10 µM (CYP3A [4]; liver microsomes, pH 7.4, probe testosterone): < 50%; IC50 (SNB-19): 8 nM; IC50 (SF-295): 184 nM

Q: CN1CCN(C(=S)NN=C2c3ncccc3-c3cccnc32)CC1 [COTI-219] was tested. Which IC50 (DMS114) did it give?
A: 267 nM

Q: And the IC50 (MCF7)?
A: 421 nM

Q: What about the IC50 (HT29) of the same compound?
A: 403 nM

Q: And the IC50 (K562)?
A: 222 nM

Q: And the “average number of tumors per injection site” value [1]?
A: 0.38

Q: What about the mean tumor volume [1] of the same compound?
A: 53+/−28 mm^3

Q: What about the IC50 (H1975; NCI-H1975, H1975, NSCLC, EGFR - MUT, 72 h) of the same compound?
A: 100 nM

Q: And the IC50 (HT-29; HT-29, Colon, KRAS - WT, 72 h)?
A: 7.4 nM

Q: What about the IC50 (COLO-205; COLO-205, Colon, KRAS - WT, read-out: Mean IC50, single agent) of the same compound?
A: 4.3 nM

Q: What about the IC50 (HCT-15; HCT-15, Colon, KRAS - MUT, read-out: Mean IC50, single agent) of the same compound?
A: 5.1 nM

Q: What about the IC50 (SW620; SW-620, SW620, Colon, KRAS - MUT, read-out: Mean IC50, single agent) of the same compound?
A: 7.4 nM

Q: What about the IC50 (SNB-19) of the same compound?
A: 1990 nM

Q: What about the IC50 (SF-295) of the same compound?
A: 2390 nM
